Results on ten compounds are retold here after patent US20240025884A1 (Dong-A ST Co., Ltd., priority 2022, published 2024).

The structures appear in SMILES notation. pIC50: −log10 of the molar value. Where only a bound is given, the exact number is not on record here.

GCN2, sequence (Q9P2K8 whole entry): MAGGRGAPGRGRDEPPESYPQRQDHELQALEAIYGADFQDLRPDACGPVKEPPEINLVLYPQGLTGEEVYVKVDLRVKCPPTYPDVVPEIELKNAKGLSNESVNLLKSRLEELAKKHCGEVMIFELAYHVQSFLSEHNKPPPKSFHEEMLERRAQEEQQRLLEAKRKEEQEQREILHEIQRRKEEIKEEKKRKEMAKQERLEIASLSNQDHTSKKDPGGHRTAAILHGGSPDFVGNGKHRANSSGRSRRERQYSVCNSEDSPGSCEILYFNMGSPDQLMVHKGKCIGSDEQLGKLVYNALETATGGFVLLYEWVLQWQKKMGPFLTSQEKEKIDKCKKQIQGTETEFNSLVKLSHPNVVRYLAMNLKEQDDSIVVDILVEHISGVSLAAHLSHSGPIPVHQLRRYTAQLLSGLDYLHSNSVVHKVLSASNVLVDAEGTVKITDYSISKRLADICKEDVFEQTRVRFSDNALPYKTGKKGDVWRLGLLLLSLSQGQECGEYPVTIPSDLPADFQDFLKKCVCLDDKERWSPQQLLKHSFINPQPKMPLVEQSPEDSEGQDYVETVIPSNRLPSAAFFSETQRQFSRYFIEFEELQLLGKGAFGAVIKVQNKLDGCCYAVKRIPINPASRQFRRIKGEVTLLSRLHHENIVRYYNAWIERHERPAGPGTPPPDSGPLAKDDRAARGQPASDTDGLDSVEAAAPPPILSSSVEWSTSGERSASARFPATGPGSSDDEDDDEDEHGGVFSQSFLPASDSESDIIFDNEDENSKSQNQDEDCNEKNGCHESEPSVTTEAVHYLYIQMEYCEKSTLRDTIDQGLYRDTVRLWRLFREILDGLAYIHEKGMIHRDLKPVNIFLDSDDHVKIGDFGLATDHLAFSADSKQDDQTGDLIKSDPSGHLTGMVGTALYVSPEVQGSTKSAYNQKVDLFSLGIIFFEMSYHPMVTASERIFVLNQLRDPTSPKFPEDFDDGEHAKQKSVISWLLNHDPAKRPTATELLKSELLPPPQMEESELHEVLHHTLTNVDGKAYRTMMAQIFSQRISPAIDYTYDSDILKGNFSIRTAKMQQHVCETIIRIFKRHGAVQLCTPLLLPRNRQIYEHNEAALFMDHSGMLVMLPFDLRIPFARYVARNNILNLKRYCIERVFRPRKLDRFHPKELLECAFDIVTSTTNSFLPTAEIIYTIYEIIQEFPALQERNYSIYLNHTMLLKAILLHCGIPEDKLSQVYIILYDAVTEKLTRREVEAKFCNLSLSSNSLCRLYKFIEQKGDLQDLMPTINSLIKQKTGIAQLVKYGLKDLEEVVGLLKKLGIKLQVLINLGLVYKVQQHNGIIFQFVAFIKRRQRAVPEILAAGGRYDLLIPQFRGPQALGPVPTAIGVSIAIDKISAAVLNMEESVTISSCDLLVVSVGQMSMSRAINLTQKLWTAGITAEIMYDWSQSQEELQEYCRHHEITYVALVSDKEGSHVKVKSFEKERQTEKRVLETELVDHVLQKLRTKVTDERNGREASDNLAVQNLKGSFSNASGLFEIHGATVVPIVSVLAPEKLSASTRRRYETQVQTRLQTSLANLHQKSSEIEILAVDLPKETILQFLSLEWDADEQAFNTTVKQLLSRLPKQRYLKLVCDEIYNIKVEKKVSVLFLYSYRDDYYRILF

This assay has as its target GCN2 (Homo sapiens (Human), UniProt Q9P2K8). In words: GCN2 Biochemical Assay (TR-FRET, GFP-eIF2S1 substrate phosphorylation). The following applies: read-out: IC50 (GCN2 Inhibitory Activity). Summed up: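 TR-FRET readout (Ex 340, Em 490/520 nm) after 2–3 h with Tb-labelled phospho-eIF2S1 antibody in stop mix, following a 70 min room-temperature kinase step. Reaction: in-house GCN2, GFP-eIF2S1, ATP, tRNA in Tris pH 7.5 (2× stocks 1.6 nM, 50 nM, 0.2 mM); compounds tested at 10 concentrations, with a phospho-substrate artifact counter-plate.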
Turning to `Cc1cnc(Nc2cc(C)n(C)n2)nc1-c1c[nH]c2c(NC(=O)CN3CC[C@H](Oc4ccnc(N)n4)C3)cccc12` [Example 192, (S)-2-(3-((2-aminopyrimidin-4-yl)oxy)pyrrolidin-1-yl)-N-(3-(2-((1,5-dimethyl-1H-pyrazol-3-yl)amino)-5-methylpyrimidin-4-yl)-1H-indol-7-yl)acetamide], the pIC50 is more than 8.00.
As for `Cc1cc(O[C@H]2CCN(CC(=O)Nc3cccc4c(-c5nc(Nc6cc(C)n(C)n6)ncc5C)c[nH]c34)C2)nc(NC2CC2)n1` [Example 236, (S)-2-(3-((2-(cyclopropylamino)-6-methylpyrimidin-4-yl)oxy)pyrrolidin-1-yl)-N-(3-(2-((1,5-dimethyl-1H-pyrazol-3-yl)amino)-5-methylpyrimidin-4-yl)-1H-indol-7-yl)acetamide], the pIC50 was more than 8.00.
As for `Cc1cnc(Nc2cc(C)n(C)n2)nc1-c1c[nH]c2c(N3Cc4c(cccc4-c4cncc(F)c4)C3=O)cccc12` [Example 478, 2-(3-(2-((1,5-dimethyl-1H-pyrazol-3-yl)amino)-5-methylpyrimidin-4-yl)-1H-indol-7-yl)-4-(5-fluoropyridin-3-yl)isoindolin-1-one], the pIC50 is more than 8.00.
In the case of `COc1cnc(Nc2cc(C)n(C)n2)nc1-c1c[nH]c2c(NC(=O)CN3CC[C@H](Oc4ccnc(NC5CC5)n4)C3)cccc12` [Example 13, (S)-2-(3-((2-(cyclopropylamino)pyrimidin-4-yl)oxy)pyrrolidin-1-yl)-N-(3-(2-((1,5-dimethyl-1H-pyrazol-3-yl)amino)-5-methoxypyrimidin-4-yl)-1H-indol-7-yl)acetamide], the pIC50 is more than 8.00.
Turning to `Cc1cnc(Nc2cc(C)n(C)n2)nc1-c1c[nH]c2c(NC(=O)CN3CC[C@H](Oc4ccc(CN5CCN(C)CC5)cc4)C3)cccc12` [Example 103, (S)-N-(3-(2-((1,5-dimethyl-1H-pyrazol-3-yl)amino)-5-methylpyrimidin-4-yl)-1H-indol-7-yl)-2-(3-(4-((4-methylpiperazin-1-yl)methyl)phenoxy)pyrrolidin-1-yl)acetamide], the pIC50 was 7.00 to 8.00.
To `Cc1cc(C)nc(OC2CCN(CC(=O)Nc3cccc4c(-c5nc(Nc6cc(C)n(C)n6)ncc5C)c[nH]c34)CC2)n1` [Example 42, N-(3-(2-((1,5-dimethyl-1H-pyrazol-3-yl)amino)-5-methylpyrimidin-4-yl)-1H-indol-7-yl)-2-(4-((4,6-dimethylpyrimidin-2-yl)oxy)piperidin-1-yl)acetamide] belongs 7.00 to 8.00.
For `Cc1cnc(Nc2cc(C)n(C)n2)nc1-c1c[nH]c2c(NC(=O)CN3CC[C@H](Oc4ccnc(N(C)Cc5ccccc5)n4)C3)cccc12` [Example 221, (S)-2-(3-((2-(benzyl(methyl)amino)pyrimidin-4-yl)oxy)pyrrolidin-1-yl)-N-(3-(2-((1,5-dimethyl-1H-pyrazol-3-yl)amino)-5-methylpyrimidin-4-yl)-1H-indol-7-yl)acetamide], the pIC50 is 6.00 to 7.00.
For the compound `Cc1cnc(Nc2cc(C)n(C)n2)nc1-c1c[nH]c2c(N3Cc4c(/C=C/C(N)=O)cccc4C3=O)cccc12` [Example 358, (E)-3-(2-(3-(2-((1,5-dimethyl-1H-pyrazol-3-yl)amino)-5-methylpyrimidin-4-yl)-1H-indol-7-yl)-1-oxoisoindolin-4-yl)acrylamide], the pIC50 is more than 8.00.
On to `Cc1cnc(Nc2cc(C)n(C)n2)nc1-c1c[nH]c2c(N3Cc4c(NC(=O)C5CCCCC5)cccc4C3=O)cccc12` [Example 295, N-(2-(3-(2-((1,5-dimethyl-1H-pyrazol-3-yl)amino)-5-methylpyrimidin-4-yl)-1H-indol-7-yl)-1-oxoisoindolin-4-yl)cyclohexanecarboxamide], for which the pIC50 was 7.00 to 8.00.
As for `Cc1cnc(Nc2cc(C)n(C)n2)nc1-c1c[nH]c2c(N3Cc4c(cccc4-c4ccccc4C(F)(F)F)C3=O)cccc12` [Example 434, 2-(3-(2-((1,5-dimethyl-1H-pyrazol-3-yl)amino)-5-methylpyrimidin-4-yl)-1H-indol-7-yl)-4-(2-(trifluoromethyl)phenyl)isoindolin-1-one], the pIC50 was 6.00 to 7.00.
